# Columns and labels:
# Cbl-b [1] = target: T1, Cbl-b (Homo sapiens, UniProt Q13191); test: Cbl-b Degradation Method A (FACS, anti-Cbl-b antibody staining); format: cell-based; details: Cbl-b-HiBit KI Jurkat Cells, incubated at least 20 hours; for DC50: half maximal degradation, read-out: Cbl-b Degredation Method A IC50; for Dmax: Jurkat, maximum degradation observed, read-out: Cbl-b Degredation Method A Dmax (%)
# T1 construct: Cbl-b-HiBit KI Jurkat Cells were purchased from Promega; host or cells: Cbl-b-HiBiT knock-in Jurkat cells
# Experimental: Cbl-b Degradation Method A
# Cbl-b-HiBit KI Jurkat Cells were purchased from Promega, and cell media consisted of RPMI 1640 with 10% FBS and 1% pen/strep. The cells were counted, measured for viability, and 100 μL of the cell solution was into 96 well flat bottom plates at a ratio of 290,000 cells per 100 μL. Compounds were dissolved in DMSO to make a 10 mM stock solution, which was diluted with cell media. 100 μL of the diluted compound mixture was added to the wells. The plate was incubated for at least 20 hours at 37° C. and 5% CO2. After incubation, the plate was shaken at 700-750 RMP for 15-30 minutes to ensure cells were removed from the wells. The wells were transferred to a 96-well v-bottom plate and spun for 2200 RPM for 3 minutes. The supernatant was removed, cells re-suspended in 100 μL of the fixative, and subsequently incubated at room temperature for 15 minutes. Afterwards, 150 μL of DPBS was added to each well, and the cells were centrifuged at 2500 RPM for 3 minutes. The supernatant was removed and the plate was chilled on ice for 2-3 minutes. While still on the ice, 100 μL of Perm III was added to each well, the wells mixed, and subsequently left on the ice for another 15 minutes. Afterwards, the plate was removed from the ice, 150 μL of DBPS was added to each well, and the cells centrifuged at 2700 RPM for 3 minutes. The supernatant was removed, and an additional 200 μL of was DPBS was added to each well, followed by centrifuging at 2700 RPM for 3 minutes, after which the supernatant was removed. The anti-Cbl-b antibody was diluted 1:200 in 1× Perm Wash buffer and 50 μL of the antibody mixture was added to each well and mixed. After addition, the plate was incubated for 35-45 minutes at room temperature. After incubation, 200 μL of DPBS was added to each wells, and the plate centrifuged at 2700 RPM for 3 minutes, followed by the removal of the supernatant. The washing step was repeated by adding 200 μL of DPBS to each wells followed by centrifuge at 2700 RPM for 3 minutes and removal of the supernatant. The a-Rabbit-AF488 antibody was diluted 1:1000 in Perm Wash buffer, 50 μL of the dilution added to each well, and mixed. After mixing, the plate was incubated for 30 minutes at room temperature in the dark. Subsequently, the supernatant was removed, and 200 μL of DBPS added to the cells, which were then centrifuged at 2900 RPM for 4 minutes. The supernatant was removed, and an additional 95 μL of DBPS was added to the wells and mixed. The cells were then transferred to a round bottom polypropylene plate and analyzed using FACS with the parameters below:
# The concentration of an exemplary compound that leads to half maximal degradation (DC50) as well as the maximum degradation observed (Dmax, conventionally expressed as a percentage of control) is shown below in Table 2.
# Cbl-b [2] = target: T1, Cbl-b; test: Cbl-b Degradation Method B (Nano-Glo HiBiT lytic detection); format: cell-based; details: Cbl-b-HiBit KI Jurkat Cells, incubated at least 6-24 hours; for DC50: half maximal degradation, read-out: Cbl-b Degredation Method B IC50; for Dmax: maximum degradation observed, read-out: Cbl-b Degredation Method B Dmax (%)
# Method in brief: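 Cbl-b-HiBiT knock-in Jurkat cells (20,000/well) were treated after ~24 h plating with an 11-point 1:3 series for 6-24 h at 37° C. Remaining Cbl-b measured by Nano-Glo HiBiT lytic luminescence. DC50 and Dmax expressed as % of control.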
# T1 sequence (Q13191 whole entry): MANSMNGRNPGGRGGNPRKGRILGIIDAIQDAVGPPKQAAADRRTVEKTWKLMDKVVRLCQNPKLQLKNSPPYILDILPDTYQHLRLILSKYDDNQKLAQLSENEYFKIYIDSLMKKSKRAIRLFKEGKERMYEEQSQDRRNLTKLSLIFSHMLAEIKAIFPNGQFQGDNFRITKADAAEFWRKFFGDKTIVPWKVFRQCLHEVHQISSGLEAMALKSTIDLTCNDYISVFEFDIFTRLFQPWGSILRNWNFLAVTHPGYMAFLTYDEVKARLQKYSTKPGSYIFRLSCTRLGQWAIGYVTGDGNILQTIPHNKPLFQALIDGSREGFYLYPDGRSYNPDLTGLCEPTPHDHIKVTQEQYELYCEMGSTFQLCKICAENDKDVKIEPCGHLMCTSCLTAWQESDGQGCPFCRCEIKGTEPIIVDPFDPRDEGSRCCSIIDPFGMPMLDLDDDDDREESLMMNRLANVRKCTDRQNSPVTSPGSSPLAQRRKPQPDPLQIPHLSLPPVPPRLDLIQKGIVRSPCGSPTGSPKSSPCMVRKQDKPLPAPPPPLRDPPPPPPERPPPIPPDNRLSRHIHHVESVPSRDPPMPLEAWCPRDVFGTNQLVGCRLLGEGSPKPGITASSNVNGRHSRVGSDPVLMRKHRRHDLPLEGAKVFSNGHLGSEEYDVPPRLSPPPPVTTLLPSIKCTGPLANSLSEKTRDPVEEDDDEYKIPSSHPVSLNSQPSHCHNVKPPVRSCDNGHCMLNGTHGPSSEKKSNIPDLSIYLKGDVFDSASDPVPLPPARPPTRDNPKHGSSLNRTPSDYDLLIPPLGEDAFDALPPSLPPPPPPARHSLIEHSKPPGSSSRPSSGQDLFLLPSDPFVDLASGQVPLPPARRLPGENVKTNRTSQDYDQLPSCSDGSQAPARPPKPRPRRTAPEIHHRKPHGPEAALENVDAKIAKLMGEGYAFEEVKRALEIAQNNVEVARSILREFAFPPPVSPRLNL
SMILES,DC50 (Cbl-b [1]),Dmax (Cbl-b [1]),DC50 (Cbl-b [2]),Dmax (Cbl-b [2])
"CC1CN(C[C@H]2CC[C@@H](OC3CCN(c4ccc5c(c4F)CN(C4CCC(=O)NC4=O)C5=O)CC3)CC2)CCN1C[C@H]1CCCN(Cc2cc3c(c(C(F)(F)F)c2)CN(c2cccc(C4(Cc5nncn5C)COC4)c2)C3=O)C1 (stereo partly drawn) [Example 166, 3-[4-fluoro-1-oxo-5-(4-{[(1r,4r)-4-[(3-methyl-4-{[(3S)-1-{[2-(3-{3-[(4-methyl-4H-1,2,4-triazol-3-yl)methyl]oxetan-3-yl}phenyl)-3-oxo-7-(trifluoromethyl)-2,3-dihydro-1H-isoindol-5-yl]methyl}piperidin-3-yl]methyl}piperazin-1-yl)methyl]cyclohexyl]oxy}piperidin-1-yl)-2,3-dihydro-1H-isoindol-2-yl]piperidine-2,6-dione]",< 5 nM,> 70%,< 5 nM,> 70%
"COc1c(N2CCC(O[C@H]3CC[C@@H](CN4CCN(C[C@H]5CCCN(Cc6cc7c(c(C(F)(F)F)c6)CN(c6cccc(C8(Cc9nncn9C)COC8)c6)C7=O)C5)CC4)CC3)CC2)ccc2c1CN(C1CCC(=O)NC1=O)C2=O (stereo partly drawn) [Example 163, 3-[4-methoxy-1-oxo-5-(4-{[(1r,4r)-4-[(4-{[(3S)-1-{[2-(3-{3-[(4-methyl-4H-1,2,4-triazol-3-yl)methyl]oxetan-3-yl}phenyl)-3-oxo-7-(trifluoromethyl)-2,3-dihydro-1H-isoindol-5-yl]methyl}piperidin-3-yl]methyl}piperazin-1-yl)methyl]cyclohexyl]oxy}piperidin-1-yl)-2,3-dihydro-1H-isoindol-2-yl]piperidine-2,6-dione]",< 5 nM,> 70%,< 5 nM,> 70%
"C[C@H]1CN(C[C@H]2CC[C@@H](OC3CCN(c4ccc5c(c4F)CN(C4CCC(=O)NC4=O)C5=O)CC3)CC2)CCN1Cc1cc2c(c(C(F)(F)F)c1)CN(c1cccc(C3(Cc4nncn4C)COC3)c1)C2=O (stereo partly drawn) [Example 194, 3-[4-fluoro-1-oxo-5-(4-{[(1r,4r)-4-{[(3S)-3-methyl-4-{[2-(3-{3-[(4-methyl-4H-1,2,4-triazol-3-yl)methyl]oxetan-3-yl}phenyl)-3-oxo-7-(trifluoromethyl)-2,3-dihydro-1H-isoindol-5-yl]methyl}piperazin-1-yl]methyl}cyclohexyl]oxy}piperidin-1-yl)-2,3-dihydro-1H-isoindol-2-yl]piperidine-2,6-dione]",< 5 nM,> 70%,< 5 nM,35 to 70%
"Cc1cc(N2CCC(O[C@H]3CC[C@H](CN4CCN(Cc5cc6c(c(C(F)(F)F)c5)CN(c5cccc([C@]7(Cc8nncn8C)C[C@@H](C#N)C7)c5)C6=O)CC4)CC3)CC2)c(F)c2c1C(=O)N(C1CCC(=O)NC1=O)C2 (stereo partly shown) [Example 205, (1r,3r)-3-[(4-methyl-4H-1,2,4-triazol-3-yl)methyl]-3-(3-{1-oxo-6-[(4-{[(1r,4r)-4-({1-[2-(2,6-dioxopiperidin-3-yl)-4-fluoro-7-methyl-1-oxo-2,3-dihydro-1H-isoindol-5-yl]piperidin-4-yl}oxy)cyclohexyl]methyl}piperazin-1-yl)methyl]-4-(trifluoromethyl)-2,3-dihydro-1H-isoindol-2-yl}phenyl)cyclobutane-1-carbonitrile]",< 5 nM,35 to 70%,,
"Cn1cnnc1CC1(c2cccc(N3Cc4c(cc(CN5CC6(CCN(CC7CCN(c8ccc9c(c8F)CN(C8CCC(=O)NC8=O)C9=O)CC7)CC6)C5)cc4C(F)(F)F)C3=O)c2)COC1 (stereo not shown) [Example 25, 3-(4-fluoro-5-{4-[(2-{[2-(3-{3-[(4-methyl-4H-1,2,4-triazol-3-yl)methyl]oxetan-3-yl}phenyl)-3-oxo-7-(trifluoromethyl)-2,3-dihydro-1H-isoindol-5-yl]methyl}-2,7-diazaspiro[3.5]nonan-7-yl)methyl]piperidin-1-yl}-1-oxo-2,3-dihydro-1H-isoindol-2-yl)piperidine-2,6-dione]",5 to 50 nM,< 35%,,

# The remaining lines, values ahead:
DC50 (Cbl-b [1]),Dmax (Cbl-b [1]),DC50 (Cbl-b [2]),Dmax (Cbl-b [2]),SMILES
5 to 50 nM,35 to 70%,< 5 nM,35 to 70%,"CC1c2nc(N3CCC(O[C@H]4CC[C@H](CN5CCN(Cc6cc7c(c(C(F)(F)F)c6)CN(c6cccc(C8(Cc9nncn9C)CC8)c6)C7=O)CC5)CC4)CC3)ccc2C(=O)N1C1CCC(=O)NC1=O (mixture of isomers) [Example 234, rac-3-[7-methyl-5-oxo-2-(4-{[(1r,4r)-4-[(4-{[2-(3-{1-[(4-methyl-4H-1,2,4-triazol-3-yl)methyl]cyclopropyl}phenyl)-3-oxo-7-(trifluoromethyl)-2,3-dihydro-1H-isoindol-5-yl]methyl}piperazin-1-yl)methyl]cyclohexyl]oxy}piperidin-1-yl)-5H,6H,7H-pyrrolo[3,4-b]pyridin-6-yl]piperidine-2,6-dione]"
5 to 50 nM,35 to 70%,,,"Cn1cnnc1CC1(c2cccc(N3Cc4c(cc(N5CC(CC6CN(c7ccc8c(c7)C(=O)N(C7CCC(=O)NC7=O)C8=O)C6)C5)cc4C(F)(F)F)C3=O)c2)COC1 (stereo not shown) [Example 120, 2-(2,6-dioxopiperidin-3-yl)-5-[3-({1-[2-(3-{3-[(4-methyl-4H-1,2,4-triazol-3-yl)methyl]oxetan-3-yl}phenyl)-3-oxo-7-(trifluoromethyl)-2,3-dihydro-1H-isoindol-5-yl]azetidin-3-yl}methyl)azetidin-1-yl]-2,3-dihydro-1H-isoindole-1,3-dione]"
5 to 50 nM,35 to 70%,,,"Cc1cc(N2CCC(O[C@H]3CC[C@H](CN4CCC5(CC4)CN(c4cc6c(c(C(F)(F)F)c4)CN(c4cccc([C@]7(Cc8nncn8C)C[C@@H](C#N)C7)c4)C6=O)C5)CC3)CC2)c(F)c2c1C(=O)N(C1CCC(=O)NC1=O)C2 (stereo partly shown) [Example 187, (1r,3r)-3-[(4-methyl-4H-1,2,4-triazol-3-yl)methyl]-3-{3-[1-oxo-6-(7-{[(1r,4r)-4-({1-[2-(2,6-dioxopiperidin-3-yl)-4-fluoro-7-methyl-1-oxo-2,3-dihydro-1H-isoindol-5-yl]piperidin-4-yl}oxy)cyclohexyl]methyl}-2,7-diazaspiro[3.5]nonan-2-yl)-4-(trifluoromethyl)-2,3-dihydro-1H-isoindol-2-yl]phenyl}cyclobutane-1-carbonitrile]"
< 5 nM,> 70%,,,"Cn1cnnc1CC1(c2cccc(N3Cc4c(cc(CN5CCCC(N6CCC(CN7CCC(CN8CCN(c9ccc%10c(c9)C(=O)N(C9CCC(=O)NC9=O)C%10=O)CC8)CC7)CC6)C5)cc4C(F)(F)F)C3=O)c2)COC1 (stereo not shown) [Example 109, 2-(2,6-dioxopiperidin-3-yl)-5-[4-({1-[(1′-{[2-(3-{3-[(4-methyl-4H-1,2,4-triazol-3-yl)methyl]oxetan-3-yl}phenyl)-3-oxo-7-(trifluoromethyl)-2,3-dihydro-1H-isoindol-5-yl]methyl}-[1,3′-bipiperidin]-4-yl)methyl]piperidin-4-yl}methyl)piperazin-1-yl]-2,3-dihydro-1H-isoindole-1,3-dione]"
5 to 50 nM,> 70%,,,"Cc1cc(N2CCC(O[C@H]3CC[C@H](CN4CCN(Cc5cc6c(c(C(F)(F)F)c5)CN(c5cccc(C7(Cc8nncn8C)CCC7)c5)C6=O)C(C)(C)C4)CC3)CC2)c(F)c2c1C(=O)N(C1CCC(=O)NC1=O)C2 (stereo partly shown) [Example 224, 3-[4-fluoro-7-methyl-1-oxo-5-(4-{[(1r,4r)-4-[(3,3-dimethyl-4-{[2-(3-{1-[(4-methyl-4H-1,2,4-triazol-3-yl)methyl]cyclobutyl}phenyl)-3-oxo-7-(trifluoromethyl)-2,3-dihydro-1H-isoindol-5-yl]methyl}piperazin-1-yl)methyl]cyclohexyl]oxy}piperidin-1-yl)-2,3-dihydro-1H-isoindol-2-yl]piperidine-2,6-dione]"

# From patent US20260184710A1, “CASITAS B-LINEAGE LYMPHOMA PROTOONCOGENE B (CBL-B) DEGRADING COMPOUNDS AND ASSOCIATED METHODS OF USE” (Arvinas Operations, Inc., priority 2022, published 2026)
